Measurements from US20130204033A1, “ANTIPROLIFERATIVE COMPOUNDS, CONJUGATES THEREOF, METHODS THEREFOR, AND USES THEREOF” (Medarex, Inc., priority 2009, published 2013).
Where two headings read alike, the source gives them in different places.

What was measured:
Type in all cases: cell-based, human
[1] = system: HCT-15; assay: 3H thymidine proliferation assay, HCT-15
Experimental: (§1) This example generally describes the procedures used to assay the antiproliferative activity of compounds of this invention or their conjugates. Human tumor cell lines were obtained from the American Type Culture Collection (ATCC), P.O. Box 1549, Manassas, Va. 20108, USA, and cultured according to instruction from the ATCC. Cells were seeded at 1.0×10^3 or 1.0×10^4 cells/well in 96-well plates for 3 h for ATP assays or ^3H thymidine assays, respectively. 1:3 serial dilutions of free (unconjugated) compounds or their conjugates were added to the wells. Plates were allowed to incubate for 24 to 72 h. The ^3H thymidine plates were pulsed with 1.0 μCi of ^3H-thymidine per well for the last 24 hours of the total incubation period, harvested, and read on a Top Count Scintillation Counter (Packard Instruments, Meriden, Conn.). ATP levels in the ATP plates were measured using the […]-GLO® Luminescent Cell Viability kit following the manufacturer's manual and read on a GLOMAX® 20/20 luminometer (both from Promega, Madison, Wis., USA). The EC50 values—the concentration at which an agent inhibits or reduces cell proliferation by 50% —were determined using PRISM™ software, version 4.0 (GraphPad Software, La Jolla, Calif., USA).
(§2) Using the ^3H thymidine or the ATP luminescence assay, or both, the activities of compounds of this invention were assayed against the following cancer cell lines: HCT-15 (colorectal cancer, multi-drug resistant (MDR)); Hep3B (liver cancer); LNCaP (prostate cancer, androgen receptor positive (AR^+)); MDA-MB-231 (breast cancer, estrogen receptor, progesterone receptor, and Her2 negative (triple negative)); A2058 (melanoma); U-87 MG (glioblastoma); NCI-H460 (NSCLC); A549 (NSCLC); HPAC (pancreatic cancer, primary); PC3 (prostate cancer, AR); BT474 (breast cancer, Her2 highly positive (Her2hi)); SKOV3 (ovarian cancer, Her2hi); 786-O (renal cancer); UO-31 (renal cancer, MDR); NCI-H740 (SCLC); DMS53 (SCLC); SK-BR3 (breast cancer, Her2hi); ZR-75 (breast cancer, estrogen receptor positive); OVCAR3 (ovarian cancer); HL-60 (APL); OVCAR8/Adr (ovarian cancer, MDR); CEM-Cl (ALL); Nomo-1 (AML); RPMI-8226 (MM)); Raji (lymphoma); SW-480 (colorectal cancer, metastatic); SW-620 (colorectal cancer); and H226 (lung cancer). (Not all compounds were assayed against all cell lines.)
(§3) Table 2 provides the data for proliferation assays using the ^3H thymidine method, with an incubation period of 72 h.

[2] = system: NCI-H460; assay: 3H thymidine proliferation assay, NCI-H460
Experimental: as §1, §2, §3

[3] = system: A549; assay: 3H thymidine proliferation assay, A549
Experimental: as §1, §2, §3

[4] = system: PC3; assay: 3H thymidine proliferation assay, PC3
Experimental: as §1, §2, §3

[5] = system: H740; assay: 3H thymidine proliferation assay, H740
Experimental: as §1, §2, §3

[6] = system: DMS53; assay: 3H thymidine proliferation assay, DMS53
Experimental: as §1, §2, §3

[7] = system: OVCAR8; assay: 3H thymidine proliferation assay, OVCAR8
Experimental: as §1, §2, §3

[8] = system: Hep3B; assay: ATP luminescence proliferation assay, Hep3B
Experimental: as §1, §2
(§4) Table 3 provides the data for the ATP luminescence proliferation assays, with an incubation period of 48, 72, or 96 h, as noted.

[9] = system: A2058; assay: ATP luminescence proliferation assay, A2058
Experimental: as §1, §2, §4

[10] = system: NCI-H460; assay: ATP luminescence proliferation assay, NCI-H460
Experimental: as §1, §2, §4

[11] = system: BT474; assay: ATP luminescence proliferation assay, BT474
Experimental: as §1, §2, §4

[12] = system: OVCAR3; assay: ATP luminescence proliferation assay, OVCAR3
In short: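 Cells were seeded at 1.0×10^3 cells/well for 3 h, then given 1:3 serial dilutions of free compound or conjugate and incubated 48, 72 or 96 h. Cellular ATP was read by luminescent viability kit, and EC50 was the concentration reducing proliferation by 50%.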

[13] = system: HL-60; assay: ATP luminescence proliferation assay, HL-60
In short: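 Cells seeded at 1.0×10^3 cells/well for 3 h, then exposed to 1:3 serial dilutions of free compounds or conjugates for 48, 72 or 96 h, as noted. ATP measured by luminescent cell viability kit; EC50 taken as concentration reducing proliferation by 50%.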

[14] = system: CEM-Cl; assay: ATP luminescence proliferation assay, CEM-C1
Experimental: as §1, §2, §4

[15] = system: Nomo-1; assay: ATP luminescence proliferation assay, Nomo-1
Experimental: as §1, §2, §4

[16] = system: RPMI-8226; assay: ATP luminescence proliferation assay, RPMI-8226
Experimental: as §1, §2, §4

[17] = system: SW-480; assay: ATP luminescence proliferation assay, SW-480
Experimental: as §1, §2, §4

[18] = system: SW-620; assay: ATP luminescence proliferation assay, SW-620
Experimental: as §1, §2, §4

[19] = 3H thymidine method, 72 h incubation, read-out: EC50, HCT-15
[20] = 3H thymidine method, 72 h incubation, read-out: EC50, NCI-H460
[21] = 3H thymidine method, 72 h incubation, read-out: EC50, A549
[22] = 3H thymidine method, 72 h incubation, read-out: EC50, PC3
[23] = 3H thymidine method, 72 h incubation, read-out: EC50, H740
[24] = 3H thymidine method, 72 h incubation, read-out: EC50, DMS53
[25] = 3H thymidine method, 72 h incubation, read-out: EC50, OVCAR8
[26] = ATP luminescence, 48 h incubation, read-out: EC50 Hep3B (48 h)
[27] = ATP luminescence, A2058, 72 h incubation, read-out: EC50 A2058 (72 h)
[28] = ATP luminescence, NCI-H460, 72 h incubation, read-out: EC50 NCI-H460 (72 h)
[29] = ATP luminescence, OVCAR3, 48 h incubation, read-out: EC50 OVCAR3 (48 h)
[30] = ATP luminescence, HL-60, 72 h incubation, read-out: EC50 HL-60 (72 h)
[31] = ATP luminescence, CEM-C1, 72 h incubation, read-out: EC50 CEM-C1 (72 h)
[32] = ATP luminescence, Nomo-1, 72 h incubation, read-out: EC50 Nomo-1 (72 h)
[33] = ATP luminescence, RPMI-8226, 72 h incubation, read-out: EC50 RPMI-8226 (72 h)
[34] = ATP luminescence, SW480, 96 h incubation, read-out: EC50 SW480 (96 h)
[35] = ATP luminescence, SW-620, 96 h incubation, read-out: EC50 SW-620 (96 h)
[36] = ATP luminescence, BT474, 48 h incubation, read-out: EC50 BT474 (48 h)

Row | SMILES | EC50 [1, 19] | EC50 [2, 20] | EC50 [3, 21] | EC50 [4, 22] | EC50 [5, 23] | EC50 [6, 24] | EC50 [7, 25] | EC50 [8, 26] | EC50 [9, 27] | EC50 [10, 28] | EC50 [12, 29] | EC50 [13, 30] | EC50 [14, 31] | EC50 [15, 32] | EC50 [16, 33] | EC50 [17, 34] | EC50 [18, 35] | EC50 [11, 36] | also measured
1 | CC[C@H](C)[C@H](NC(=O)[C@H]1CCCCN1C)C(=O)N(COC(=O)CC(C)C)[C@H](C[C@@H](OC(C)=O)c1nc(C(=O)N[C@@H](Cc2ccccc2)C[C@H](C)C(=O)O)cs1)C(C)C [Tub D, tubulysin D, reference compound] | 0.062 nM | 0.032 nM | 0.014 nM | 0.038 nM | 2.2 nM | 0.21 nM | 0.17 nM | 0.0012 nM | 0.0064 nM | 0.0076 nM | 0.085 nM | 0.0096 nM | 0.003 nM | 0.013 nM | 0.0051 nM | 0.02 nM | 0.0058 nM | – | EC50 ([11]; ATP luminescence, BT474, 72 h incubation, read-out: EC50 BT474 (72 h)): 0.021 nM
2 | CC[C@H](C)[C@H](NC(=O)[C@H]1CCCCN1C)C(=O)N(C)[C@H](C[C@@H](OC(C)=O)c1nc(C(=O)N[C@@H](Cc2ccc(N)cc2)C(=O)O)cs1)C(C)C [Compound 56] | 2480 nM | > 100 nM | > 100 nM | > 100 nM | > 100 nM | > 100 nM | > 3000 nM | > 100 nM | – | – | > 100 nM | > 100 nM | > 100 nM | > 100 nM | 5.7 nM | > 100 nM | 28 nM | > 100 nM | EC50 ([9]; ATP luminescence, A2058, 48 h incubation, read-out: EC50 A2058 (48 h)): > 100 nM; EC50 ([10]; ATP luminescence, NCI-H460, 48 h incubation, read-out: EC50 NCI-H460 (48 h)): > 100 nM
3 | CC[C@H](C)[C@H](NC(=O)[C@H]1CCCCN1C)C(=O)N(COC(=O)CC(C)C)[C@H](C[C@@H](OC(C)=O)c1nc(C(=O)N[C@@H](Cc2ccc(N)cc2)CC(C)C(=O)O)cs1)C(C)C (stereo partly drawn) [Compound 54] | – | – | – | – | – | – | – | – | – | – | – | – | – | – | – | – | – | – | EC50 ([1]; Homo sapiens, HCT-15, read-out: EC50, HCT-15, 3H thymidine method, 72 h incubation): 0.44 nM; EC50 ([2]; Homo sapiens, NCI-H460, read-out: EC50, NCI-H460, 3H thymidine method, 72 h incubation): 0.31 nM; EC50 ([3]; Homo sapiens, A549, read-out: EC50, A549, 3H thymidine method, 72 h incubation): 0.24 nM; EC50 ([4]; Homo sapiens, PC-3, read-out: EC50, PC3, 3H thymidine method, 72 h incubation): 0.82 nM; EC50 ([5]; Homo sapiens, read-out: EC50, H740, 3H thymidine method, 72 h incubation): 10 nM; EC50 ([6]; Homo sapiens, DMS-53, read-out: EC50, DMS53, 3H thymidine method, 72 h incubation): 2 nM; EC50 ([7]; Homo sapiens, OVCAR-8, read-out: EC50, OVCAR8, 3H thymidine method, 72 h incubation): 2.1 nM; EC50 ([8]; Homo sapiens, 48 h, read-out: EC50 Hep3B (48 h), ATP luminescence, Hep3B, 48 h incubation): 1.5 nM; EC50 ([9]; Homo sapiens, A2058, 72 h, read-out: EC50 A2058 (72 h), ATP luminescence, A2058, 72 h incubation): 1.4 nM; EC50 ([10]; Homo sapiens, NCI-H460, 72 h, read-out: EC50 NCI-H460 (72 h), ATP luminescence, NCI-H460, 72 h incubation): 1.6 nM; EC50 ([11]; Homo sapiens, BT-474, 48 h, read-out: EC50 BT474 (48 h), ATP luminescence, BT474, 48 h incubation): 4.8 nM; EC50 ([12]; Homo sapiens, OVCAR-3, 48 h, read-out: EC50 OVCAR3 (48 h), ATP luminescence, OVCAR3, 48 h incubation): > 100 nM; EC50 ([13]; Homo sapiens, HL-60, 48 h, read-out: EC50 HL-60 (48 h), ATP luminescence, HL-60, 48 h incubation): 2.5 nM; EC50 ([14]; Homo sapiens, CEM/C1, 72 h, read-out: EC50 CEM-C1 (72 h), ATP luminescence, CEM-C1, 72 h incubation): 1.2 nM; EC50 ([15]; Homo sapiens, NOMO-1, 48 h, read-out: EC50 Nomo-1 (48 h), ATP luminescence, Nomo-1, 48 h incubation): 3.1 nM; EC50 ([16]; Homo sapiens, RPMI-8226, 72 h, read-out: EC50 RPMI-8226 (72 h), ATP luminescence, RPMI-8226, 72 h incubation): 1.6 nM; EC50 ([17]; Homo sapiens, SW480, 96 h, read-out: EC50 SW480 (96 h), ATP luminescence, SW480, 96 h incubation): 1.6 nM; EC50 ([18]; Homo sapiens, SW-620, 96 h, read-out: EC50 SW-620 (96 h), ATP luminescence, SW-620, 96 h incubation): 1.1 nM
4 | CC[C@H](C)[C@H](NC(=O)[C@H]1CCCCN1C)C(=O)N(COC(=O)CC(C)C)[C@H](C[C@@H](O)c1nc(C(=O)N[C@@H](Cc2ccccc2)C(=O)OC)cs1)C(C)C [Compound 28] | 223 nM | > 100 nM | > 100 nM | > 100 nM | 5.8 nM | > 100 nM | 27 nM | 17 nM | 20 nM | 35 nM | 14 nM | 2.9 nM | 11 nM | 0.82 nM | 10 nM | 36 nM | 21 nM | 12 nM | –
